# Measured values from paper PMC12561453, “Synthesis and Structure–Activity Relationship Study of 2-(amino)quinazolin-4(3H)-one Derivatives as Potential Inhibitors of Methicillin-Resistant Staphylococcus aureus (MRSA)” (Antibiotics, 2025).
# Like-named read-outs stand apart in the source and are kept apart here.
# What was measured:
# [1] = test system: S. aureus USA300 JE2 expressing GFP in H460 cells; test: microbe, parasite or virus in culture; format: cell-based, Staphylococcus aureus; details: for MIC50: Staphylococcus aureus, USA300, 24 h, read-out: H460 Assay MIC50 (MIC50 ex vivo)
# Text: Staphylococcus aureus, including MRSA, can invade host cells and replicate intracellularly, which complicates treatment with current therapies. To evaluate the intracellular antibacterial activities of the selected compounds, the fifteen compounds tested for cytotoxicity were further assessed using a cell infection model based on H460 human lung epithelial cells, which mimic MRSA-mediated pneumonia. H460 cells were infected with the USA300 JE2 expressing green fluorescent protein (GFP) and subsequently treated with the compounds in a dose–response manner, along with three reference antibiotics: vancomycin, linezolid, and erythromycin. After 24 h of incubation, bacterial loads were quantified by measuring GFP fluorescence in each well. MIC50 values determined in the H460 infection model (MIC50 ex vivo) were generally higher than those obtained from the in vitro tests, likely due to either limited compound penetration into host cells or reduced antibacterial effect of the compounds against intracellular bacteria (Figure 3, Table 2). […] These findings underscore the potential of compound 6y as a promising lead for further development as a novel antistaphylococcal agent.
# To see the ex vivo antimicrobial activity of the compound, the human lung carcinoma cell line H460 (ATCC #HTB-177) was used. The H460 cells were cultured in RPMI 1640 medium with 10% fetal bovine serum (FBS) and in a 96-well microplate at 37 °C and 5% CO2. Cell lines were cultured for 2 days, until they reached full confluence in the well. S. aureus (USA300-containing and pCM29-encoding GFP) was cultured in CAMHB with 10 µg/mL of chloramphenicol, and bacterial cells were harvested. After washing the bacterial cells with phosphate-buffered saline (PBS) and suspending them in RPMI, infected H460 cells with S. aureus (1 × 10^7 CFU) and incubated them for 2.5 h. Samples were washed three times with PBS. Then, cells were treated with gentamicin (50 µg/mL of gentamicin in RPMI) and incubated for 1 h. Samples were washed with PBS, RPMI-containing diluted compounds were added, and then they were incubated at 37 °C in 5% CO2 for 24 h. To detect the Green fluorescent protein (GFP) signal, an Ensight multimode plate reader and Opera Phenix Plus (Revvity, Waltham, MA, USA) were used.
# Ex vivo infection model images were generated using the Opera Phenix Plus high-content imaging system. Images were obtained by a confocal microscope with a 20× water objective lens. To detect the bacteria fluorescence signal (GFP), the Alexa 488 channel (488 nm laser/500–550 filter, Thermo Fisher Scientific, Waltham, MA, USA) was used, and the brightfield channel was used for H460 cell images.
# Figure 3 Antibacterial activities of 2-(amino)quinazolin-4(3H)-one derivatives in the H460 infection model. H460 cells were infected with S. aureus USA300 JE strain expressing GFP, followed by treatment with serial dilutions of 2-(amino)quinazolin-4(3H)-one derivatives. After incubation at 37 °C for 24 h with 5% CO2, fluorescence signals of the bacteria were detected at 488 nm/510 nm using a multilabel plate reader.
# [2] = Plasma protein binding, rat; format: in vitro ADME; details: read-out: PPB rat, plasma protein binding rate (converted)
# Method: Table S2. Result of microsomal stability, plasma protein binding rate, and CYP inhibition of 6l and 6y
# Compound MSa PPBrat human rat human 1A2 2C9 2C19 2D6 3A4
# a % of remaining after 30 min. b plasma protein binding rate (%) at 5 μM concentrations. c % of CYP
# inhibition in human liver microsomes at 10 μM concentrations. […]
# [3] = test system: S. aureus ATCC25923; test: Broth microdilution dose-response, S. aureus ATCC25923; format: cell-based, Staphylococcus aureus; details: Staphylococcus aureus, ATCC25923, methicillin-sensitive strain; OD600 after 18–24 h; read-out: ATCC25923 MIC50
# Text: The antistaphylococcal activities (MIC50) of the synthesized compounds were examined via a previously described broth microdilution method against two S. aureus strains: ATCC25923, a methicillin-sensitive reference strain, and JE2, a methicillin-resistant strain of the USA300 lineage (Figure 2, Table 1).
# Staphylococcus aureus USA300, a methicillin-resistant strain, was obtained from the Nebraska Transposon Mutant Library. Staphylococcus aureus ATCC25923, a pan-drug-susceptible strain, was purchased from the American Type Culture Collection (ATCC) (Manassas, VA, USA). S. aureus strains were grown in Cation-Adjusted Mueller–Hinton broth (CAMHB) (Difco) at 37 °C. Bacterial strain stocks were stored in vials with 25% glycerol at −80 °C. For each experiment, overnight cultures were prepared by inoculating a frozen bacterial strain stock in 10 mL of CAMHB medium and incubating at 37 °C in a shaking incubator (180 rpm). For the preliminary screen and dose–response experiments, 100 µL of overnight culture was inoculated into 10 mL of fresh CAMHB and incubated for 3 h at 37 °C and 180 rpm.
# Antibiotic susceptibility assay was tested according to modified Clinical and Laboratory Standards Institute (CLSI) laboratory guidelines for broth microdilution assays. S. aureus was cultured in CAMHB, and bacterial cells were prepared with an OD600 of 0.005. DRC plates were prepared by adding 40 µL of bacterial suspension to each well, where 10 µL of each compound had been dispensed for […] of two-fold serial dilutions starting at […]. After incubation of the plates at 37 °C for 18–24 h with 5% CO2, the growth of S. aureus was detected by measuring the OD600nm using an Ensight (Revvity) spectrometer (Revvity, Waltham, MA, USA).
# Figure 2 In vitro antibacterial activities of 2-(amino)quinazolin-4(3H)-one derivatives. S. aureus ATCC25923 (blue) and USA300 JE (orange) strains were incubated with serial dilutions of 2-(amino)quinazolin-4(3H)-one derivatives (0.19–100 µM) for 18–24 h. The dose–responses were observed by measuring OD600nm. The plots were drawn from each group of strains with nonlinear curve fits.
# [4] = Rat pharmacokinetic study; format: in vivo; details: male rats
# Method: Table S3. Rat pharmacokinetic study of 6l and 6y
# Parametersa I.V., 2 mg/kg P.O., 10 mg/kg I.V., 5 mg/kg P. O . , 1 0 mg/kg
# Cmax ([…]) NA 0.9 NA 0.2
# CL (L/h/kg) 0.25 NA 1.8 NA
# a All results are mean of experiments using three male rats. b NA: not applicable
# [5] = Cytotoxicity in L929 cells; format: cell-based; details: mouse, L929 cells (NCTC clone 929, fibroblast cell line)
# Method: (§1) Table S1. Results of hERG binding assay and cytotoxicity of 6l and 6y
# (§2) Compound hERGa CytotoxicityVERO HFL-1 L929 NIH 3T3 CHO-K1
# (§3) a % inhibition at 10 μM concentrations. b IC50 values in various mammalian cell lines. […]
# [6] = Cytotoxicity in NIH 3T3 cells; format: cell-based; details: mouse, NIH 3T3 cells (embryonic fibroblast cell line)
# Method: as §1, §2, §3
# [7] = rat, in vivo, iv, I.V., 5 mg/kg
structure (smiles),measurement,setting,value
"O=c1[nH]c(Nc2cc(Cl)cc(Cl)c2)nc2cc(Cl)ccc12 [6l, 7-Chloro-2-((3,5-dichlorophenyl)amino)quinazolin-4(3H)-one]",MIC50,[1],12.1 µM
same,fraction unbound at 5 μM,[2],0.001
same,MIC50,[3],1 µM
same,AUC,"[4]; I.V., 2 mg/kg",8500 ng·h/mL
same,CL,"[4]; I.V., 2 mg/kg",4.17 mL/min/kg
same,T1/2,"[4]; I.V., 2 mg/kg",2.2 h
same,Vss,"[4]; I.V., 2 mg/kg",1.6 L/kg
same,AUC,"[4]; P.O., 10 mg/kg",6600 ng·h/mL
same,Cmax,"[4]; P.O., 10 mg/kg",0.9
same,Ft,"[4]; P.O., 10 mg/kg",15.6%
same,T1/2,"[4]; P.O., 10 mg/kg",5.7 h
same,Tmax,"[4]; P.O., 10 mg/kg",2.5 h
same,IC50,[5],31.4 µM
same,IC50,[6],> 100 µM
"O=c1[nH]c(NCc2ccc(F)c(F)c2)nc2cc(Cl)ccc12 [6y, 7-Chloro-2-((3,4-difluorobenzyl)amino)quinazolin-4(3H)-one]",distortion of H460 cell morphology (in words),"[1]; 6.25 µM, brightfield images, 24 h",relatively minimal distortion of H460 cell morphology
same,bacterial load in infected H460 cells (in words),"[1]; 6.25 µM, confocal images, 24 h",markedly reducing the bacterial load
same,H460 Assay MIC50 (MIC50 ex vivo),"[1]; H460 cells infected with USA300 JE2-GFP, 24 h, GFP fluorescence",1.9 µM
same,MIC50,[1],1.9 µM
same,fraction unbound at 5 μM,[2],0.005
same,MIC50,[3],0.36 µM
same,Ft,"[4]; P.O., 10 mg/kg",33.4%
same,clearance,[4]; [7],30 mL/min/kg
same,half-life,[4]; [7],8.5 h
same,AUC,"[4]; rat, in vivo, iv, I.V., 5 mg/kg, read-out: AUC",2800 ng·h/mL
same,Vd,"[4]; rat, in vivo, iv, I.V., 5 mg/kg, read-out: Vss",5.2 L/kg
same,half-life,"[4]; rat, in vivo, po, P.O., 10 mg/kg",3.6 h
same,AUC,"[4]; rat, in vivo, po, P.O., 10 mg/kg, read-out: AUC",1900 ng·h/mL
same,Cmax,"[4]; rat, in vivo, po, P.O., 10 mg/kg, read-out: Cmax",200 ng/mL
same,Tmax,"[4]; rat, in vivo, po, P.O., 10 mg/kg, read-out: Tmax",5.3 h
same,IC50,[5],79 µM
same,IC50,[6],62 µM
